Laboratory results from ChEMBL document CHEMBL1201862, “PubChem BioAssay data set” (2004).
The source made the active and inactive calls.

How the values were obtained:
[1] = Luminescence Cell-Based Dose Confirmation HTS to Identify Activators of 5'UTR Stem-Loop Driven Alpha-Synuclein mRNA Translation in H4 Neuroglioblastoma Cells. [Related pubchem assays: 1829 (Project Summary), 1814 (Primary HTS)]; type: functional
[2] = Luminescence Cell-Based Dose Response HTS to Identify Activators of Luciferase Translation or Activity in H4 […] Cells. [Related pubchem assays: 1829 (Project Summary), 1814 (Primary HTS)]; type: functional
H4 = experiment: Luminescence Cell-Based Dose Response HTS to Identify Activators of 5'UTR Stem-Loop Driven Prion Protein mRNA Translation in H4 Neuroglioblastoma Cells. [Related pubchem assays: 1829 (Project Summary), 1814 (Primary HTS)]; type: functional; conditions: Homo sapiens
[3] = target: Voltage-gated inwardly rectifying potassium channel KCNH2 (Homo sapiens, UniProt Q12809); experiment: hERG protection from proarrhythmic block, potency, dose response, cell-based, thallium flux (AID 2121); type: ADME
[4] = inhibitors of intracellular T. cruzi replication, confirmation, NIH3T3 host cells, beta-gal luminescence (AID 2044); type: functional, cell-based;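 further: intracellular parasites grown in NIH/3T3 mouse fibroblasts as host cells; luminescent beta-galactosidase reporter signal from transgenic T. cruzi replicating inside host cells; inhibitors lower the luminescence signal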
[5] = cytotoxicity toward NIH3T3 fibroblasts, dose response, counter-screen, cell-based, ATP luminescence, mouse fibroblasts (AID 2010); type: functional;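 further: cells exposed to compound for about 90 hours before reading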
Estrogen receptor = target: T1, Estrogen receptor (Homo sapiens, UniProt P03372);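 further: potency for inhibiting coactivator peptide recruitment to the receptor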
T1 sequence (P03372 whole entry): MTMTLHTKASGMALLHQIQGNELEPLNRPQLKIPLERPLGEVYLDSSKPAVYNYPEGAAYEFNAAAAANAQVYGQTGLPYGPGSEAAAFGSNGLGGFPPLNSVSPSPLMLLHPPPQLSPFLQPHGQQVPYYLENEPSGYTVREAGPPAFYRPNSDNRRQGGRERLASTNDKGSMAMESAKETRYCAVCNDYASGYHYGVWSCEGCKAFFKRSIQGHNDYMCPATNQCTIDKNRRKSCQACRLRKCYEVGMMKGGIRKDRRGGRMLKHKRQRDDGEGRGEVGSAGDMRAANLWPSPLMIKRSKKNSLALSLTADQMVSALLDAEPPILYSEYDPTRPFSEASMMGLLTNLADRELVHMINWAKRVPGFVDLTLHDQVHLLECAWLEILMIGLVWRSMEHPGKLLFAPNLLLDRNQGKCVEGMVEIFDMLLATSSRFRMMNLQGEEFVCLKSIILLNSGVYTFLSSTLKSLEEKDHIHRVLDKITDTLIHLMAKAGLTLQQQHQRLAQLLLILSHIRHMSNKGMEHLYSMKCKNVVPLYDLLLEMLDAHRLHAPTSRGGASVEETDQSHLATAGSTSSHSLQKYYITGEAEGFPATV

[6] = target: Heat shock protein HSP 90-alpha (Homo sapiens, UniProt P07900); type: functional, organism-based
Estrogen receptor beta [7] = target: T2, Estrogen receptor beta (Homo sapiens, UniProt Q92731);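 further: recombinant ER-beta bound to coactivator SRC1 peptide in presence of estradiol agonist; inhibitors block coactivator peptide binding and lower the FRET signal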
Estrogen receptor beta [8] = target: T2, Estrogen receptor beta; experiment: ERβ–SRC-3 coactivator interaction inhibitors, confirmation, orthogonal assay, biochemical, ELISA, streptavidin-HRP readout (AID 1060)
Ephrin type-A receptor 4 = Ephrin type-A receptor 4 (Mus musculus, UniProt Q03137); experiment: inhibitors of EphA4 binding to KYL peptide, primary screen, biochemical, colorimetric, mouse EphA4 (AID 689); type: functional
[9] = target: Induced myeloid leukemia cell differentiation protein Mcl-1 (Homo sapiens, UniProt Q07820); type: functional
Protein Tat = Protein Tat (Human immunodeficiency virus type 1 group M subtype B (isolate HXB2)(HIV-1), UniProt P04608); type: functional;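 further: tat binding to TAR RNA read out by fluorescence polarization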
[10] = THP-1 cell cytotoxicity, dose response, cytotoxicity control for Vif-APOBEC3G degradation inhibitor project, THP-1 cells (AID 1117359); type: functional; conditions: Human immunodeficiency virus 1, THP-1
[11] = target: T3, RNA-binding protein pos-1 (Caenorhabditis elegans, UniProt G5EF15); experiment: inhibitors of POS-1/mex-3 RNA binding, dose response, biochemical, fluorescence polarization (AID 1964);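 further: purified POS-1 fused to maltose binding protein made in E. coli; potency of compounds blocking POS-1 binding to fluorescent RNA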
T3 sequence (G5EF15 whole entry): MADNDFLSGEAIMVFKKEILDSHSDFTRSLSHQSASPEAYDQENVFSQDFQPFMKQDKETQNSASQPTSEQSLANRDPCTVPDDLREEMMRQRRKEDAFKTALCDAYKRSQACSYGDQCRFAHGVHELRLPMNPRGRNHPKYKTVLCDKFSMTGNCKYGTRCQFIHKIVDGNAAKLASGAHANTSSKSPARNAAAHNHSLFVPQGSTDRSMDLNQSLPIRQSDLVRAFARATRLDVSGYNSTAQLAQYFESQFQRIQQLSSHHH

[12] = target: T4, Zinc finger protein mex-5 (Caenorhabditis elegans, UniProt Q9XUB2); experiment: MEX-5/TCR-2 RNA interaction inhibitors, dose response, biochemical, C. elegans, fluorescence polarization (AID 1960)
T4 sequence (Q9XUB2 whole entry): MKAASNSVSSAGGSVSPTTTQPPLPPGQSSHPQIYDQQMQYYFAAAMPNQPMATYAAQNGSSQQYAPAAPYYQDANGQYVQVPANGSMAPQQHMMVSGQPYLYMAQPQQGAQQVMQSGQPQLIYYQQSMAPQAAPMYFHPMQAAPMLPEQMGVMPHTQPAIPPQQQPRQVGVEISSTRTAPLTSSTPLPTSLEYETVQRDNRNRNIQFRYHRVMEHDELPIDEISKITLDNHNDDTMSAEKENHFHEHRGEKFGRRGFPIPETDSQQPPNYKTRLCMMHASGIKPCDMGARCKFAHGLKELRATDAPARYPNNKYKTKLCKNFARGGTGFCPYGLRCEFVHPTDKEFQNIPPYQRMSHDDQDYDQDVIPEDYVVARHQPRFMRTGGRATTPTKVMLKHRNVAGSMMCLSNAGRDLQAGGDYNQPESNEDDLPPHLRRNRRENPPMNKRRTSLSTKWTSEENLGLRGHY

[13] = target: T5, Tyrosine-protein phosphatase non-receptor type 7 (Homo sapiens, UniProt P35236); experiment: redox-dependent HePTP inhibition, mechanism study, biochemical, fluorescence (AID 2068); type: functional
T5 sequence (P35236 whole entry): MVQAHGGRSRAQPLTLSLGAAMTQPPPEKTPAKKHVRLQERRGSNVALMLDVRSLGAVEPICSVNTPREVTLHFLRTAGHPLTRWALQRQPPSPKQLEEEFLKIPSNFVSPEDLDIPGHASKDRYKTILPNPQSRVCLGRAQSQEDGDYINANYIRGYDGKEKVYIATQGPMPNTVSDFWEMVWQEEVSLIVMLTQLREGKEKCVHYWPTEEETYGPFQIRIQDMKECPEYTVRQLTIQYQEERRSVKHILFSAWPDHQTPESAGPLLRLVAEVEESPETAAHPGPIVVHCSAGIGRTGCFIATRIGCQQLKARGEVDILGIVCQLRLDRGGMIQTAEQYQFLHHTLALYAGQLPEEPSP

Coagulation factor XII = target: T6, Coagulation factor XII (Homo sapiens, UniProt P00748); type: functional;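 further: activated factor XIIa alpha cleaving a fluorogenic AMC peptide substrate; inhibitor potency from loss of enzyme activity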
T6 sequence (P00748 whole entry): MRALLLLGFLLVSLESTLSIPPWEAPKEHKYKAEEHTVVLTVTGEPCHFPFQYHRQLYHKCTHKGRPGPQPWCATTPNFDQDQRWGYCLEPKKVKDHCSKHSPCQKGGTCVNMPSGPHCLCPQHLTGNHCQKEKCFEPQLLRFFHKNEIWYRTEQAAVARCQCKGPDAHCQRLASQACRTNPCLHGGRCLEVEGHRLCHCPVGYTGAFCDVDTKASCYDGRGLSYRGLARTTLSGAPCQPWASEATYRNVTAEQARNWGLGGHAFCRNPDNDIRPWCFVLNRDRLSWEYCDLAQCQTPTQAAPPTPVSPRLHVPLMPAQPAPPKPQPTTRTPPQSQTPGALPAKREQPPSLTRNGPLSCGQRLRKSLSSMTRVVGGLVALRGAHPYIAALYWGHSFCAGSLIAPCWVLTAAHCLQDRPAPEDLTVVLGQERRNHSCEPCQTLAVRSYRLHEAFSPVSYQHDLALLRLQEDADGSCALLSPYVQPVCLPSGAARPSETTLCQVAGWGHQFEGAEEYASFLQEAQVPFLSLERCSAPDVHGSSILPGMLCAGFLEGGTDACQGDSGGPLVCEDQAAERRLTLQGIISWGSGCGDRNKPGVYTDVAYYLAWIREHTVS

Genome polyprotein = Genome polyprotein (dengue virus type 2, UniProt P29990); experiment: Dengue-2 NS5 methyltransferase inhibitors, primary screen, biochemical, confirmation dose response (AID 588689); type: functional
Genome polyprotein, sequence (P29990 2492-3391 limits assumed): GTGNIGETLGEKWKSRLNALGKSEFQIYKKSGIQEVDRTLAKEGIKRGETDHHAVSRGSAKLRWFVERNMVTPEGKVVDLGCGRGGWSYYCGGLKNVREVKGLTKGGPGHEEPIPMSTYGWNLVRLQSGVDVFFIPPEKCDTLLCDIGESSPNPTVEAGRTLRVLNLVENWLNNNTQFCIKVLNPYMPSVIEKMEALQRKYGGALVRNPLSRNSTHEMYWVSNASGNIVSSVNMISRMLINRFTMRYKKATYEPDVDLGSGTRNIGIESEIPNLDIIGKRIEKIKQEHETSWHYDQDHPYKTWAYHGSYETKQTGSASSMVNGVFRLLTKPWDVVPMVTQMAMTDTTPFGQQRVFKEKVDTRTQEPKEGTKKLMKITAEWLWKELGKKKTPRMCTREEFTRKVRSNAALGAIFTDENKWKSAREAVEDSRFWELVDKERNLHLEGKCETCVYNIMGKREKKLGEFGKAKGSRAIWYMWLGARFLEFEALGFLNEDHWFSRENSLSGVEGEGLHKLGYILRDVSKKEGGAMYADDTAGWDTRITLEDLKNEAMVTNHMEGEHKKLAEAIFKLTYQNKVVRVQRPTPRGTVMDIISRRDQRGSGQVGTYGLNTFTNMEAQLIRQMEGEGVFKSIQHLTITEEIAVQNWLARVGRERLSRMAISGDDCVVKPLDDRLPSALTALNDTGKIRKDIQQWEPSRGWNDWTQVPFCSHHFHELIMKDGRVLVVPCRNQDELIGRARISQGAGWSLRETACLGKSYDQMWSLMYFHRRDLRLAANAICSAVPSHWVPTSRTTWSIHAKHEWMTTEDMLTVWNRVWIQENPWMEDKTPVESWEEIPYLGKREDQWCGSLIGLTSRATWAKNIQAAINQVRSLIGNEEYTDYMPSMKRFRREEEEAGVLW

T2 sequence (Q92731 whole entry): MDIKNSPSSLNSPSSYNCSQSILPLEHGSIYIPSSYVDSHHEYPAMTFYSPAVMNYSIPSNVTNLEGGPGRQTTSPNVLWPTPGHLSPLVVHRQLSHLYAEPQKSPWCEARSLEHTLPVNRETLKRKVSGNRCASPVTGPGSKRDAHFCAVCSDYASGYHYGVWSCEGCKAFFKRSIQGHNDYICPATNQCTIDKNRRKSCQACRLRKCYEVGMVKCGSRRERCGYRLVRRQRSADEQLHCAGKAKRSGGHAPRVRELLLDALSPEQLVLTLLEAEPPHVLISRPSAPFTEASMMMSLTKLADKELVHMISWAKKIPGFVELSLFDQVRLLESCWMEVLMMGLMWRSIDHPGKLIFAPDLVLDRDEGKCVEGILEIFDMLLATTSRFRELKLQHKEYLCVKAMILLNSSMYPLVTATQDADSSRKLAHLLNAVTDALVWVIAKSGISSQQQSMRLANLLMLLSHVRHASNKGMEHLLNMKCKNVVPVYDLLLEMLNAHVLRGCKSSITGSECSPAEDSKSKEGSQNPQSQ
Voltage-gated inwardly rectifying potassium channel KCNH2, sequence (Q12809 whole entry): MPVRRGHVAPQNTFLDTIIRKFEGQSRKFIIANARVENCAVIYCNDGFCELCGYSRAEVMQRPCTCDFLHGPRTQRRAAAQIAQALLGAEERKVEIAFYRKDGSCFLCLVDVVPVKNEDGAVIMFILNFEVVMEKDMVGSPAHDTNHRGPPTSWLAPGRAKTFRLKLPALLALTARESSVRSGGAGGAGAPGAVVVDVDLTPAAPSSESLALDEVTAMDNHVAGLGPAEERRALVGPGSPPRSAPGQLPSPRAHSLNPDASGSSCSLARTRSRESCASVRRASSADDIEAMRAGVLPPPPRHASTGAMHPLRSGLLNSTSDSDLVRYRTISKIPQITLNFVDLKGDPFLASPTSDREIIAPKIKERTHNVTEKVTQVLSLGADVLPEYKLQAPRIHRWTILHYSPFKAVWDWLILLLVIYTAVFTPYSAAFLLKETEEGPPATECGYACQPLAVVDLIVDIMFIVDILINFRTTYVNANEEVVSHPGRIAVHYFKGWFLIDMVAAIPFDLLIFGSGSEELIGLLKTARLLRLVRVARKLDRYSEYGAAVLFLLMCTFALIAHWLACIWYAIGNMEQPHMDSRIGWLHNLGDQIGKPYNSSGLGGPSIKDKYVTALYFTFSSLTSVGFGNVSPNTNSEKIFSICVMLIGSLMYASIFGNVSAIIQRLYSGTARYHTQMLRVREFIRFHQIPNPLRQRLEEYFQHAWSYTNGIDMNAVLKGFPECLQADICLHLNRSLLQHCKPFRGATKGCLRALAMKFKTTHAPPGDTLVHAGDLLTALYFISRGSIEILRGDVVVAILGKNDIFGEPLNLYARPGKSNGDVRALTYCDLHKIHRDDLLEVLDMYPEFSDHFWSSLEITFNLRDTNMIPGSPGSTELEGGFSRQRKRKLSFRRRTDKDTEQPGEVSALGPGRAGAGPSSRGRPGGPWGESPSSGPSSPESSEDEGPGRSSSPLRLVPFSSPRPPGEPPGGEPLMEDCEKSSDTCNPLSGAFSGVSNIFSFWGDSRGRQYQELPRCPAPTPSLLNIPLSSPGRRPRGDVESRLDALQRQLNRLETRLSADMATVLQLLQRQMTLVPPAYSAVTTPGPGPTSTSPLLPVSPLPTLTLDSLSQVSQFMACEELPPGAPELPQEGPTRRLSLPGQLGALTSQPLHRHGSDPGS
Induced myeloid leukemia cell differentiation protein Mcl-1, sequence (Q07820 whole entry): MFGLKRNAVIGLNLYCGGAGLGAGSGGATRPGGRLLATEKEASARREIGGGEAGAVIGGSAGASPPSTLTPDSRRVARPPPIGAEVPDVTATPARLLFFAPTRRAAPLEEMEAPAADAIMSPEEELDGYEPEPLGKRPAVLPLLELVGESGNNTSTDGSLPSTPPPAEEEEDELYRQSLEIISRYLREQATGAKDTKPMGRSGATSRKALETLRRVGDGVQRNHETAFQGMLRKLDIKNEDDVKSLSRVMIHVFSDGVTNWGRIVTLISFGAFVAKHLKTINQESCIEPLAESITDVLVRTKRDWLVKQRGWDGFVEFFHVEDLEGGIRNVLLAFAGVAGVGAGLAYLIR
Protein Tat, sequence (P04608 whole entry): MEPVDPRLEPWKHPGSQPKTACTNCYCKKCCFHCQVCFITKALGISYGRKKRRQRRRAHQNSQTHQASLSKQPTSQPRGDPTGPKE
Ephrin type-A receptor 4, sequence (Q03137 whole entry): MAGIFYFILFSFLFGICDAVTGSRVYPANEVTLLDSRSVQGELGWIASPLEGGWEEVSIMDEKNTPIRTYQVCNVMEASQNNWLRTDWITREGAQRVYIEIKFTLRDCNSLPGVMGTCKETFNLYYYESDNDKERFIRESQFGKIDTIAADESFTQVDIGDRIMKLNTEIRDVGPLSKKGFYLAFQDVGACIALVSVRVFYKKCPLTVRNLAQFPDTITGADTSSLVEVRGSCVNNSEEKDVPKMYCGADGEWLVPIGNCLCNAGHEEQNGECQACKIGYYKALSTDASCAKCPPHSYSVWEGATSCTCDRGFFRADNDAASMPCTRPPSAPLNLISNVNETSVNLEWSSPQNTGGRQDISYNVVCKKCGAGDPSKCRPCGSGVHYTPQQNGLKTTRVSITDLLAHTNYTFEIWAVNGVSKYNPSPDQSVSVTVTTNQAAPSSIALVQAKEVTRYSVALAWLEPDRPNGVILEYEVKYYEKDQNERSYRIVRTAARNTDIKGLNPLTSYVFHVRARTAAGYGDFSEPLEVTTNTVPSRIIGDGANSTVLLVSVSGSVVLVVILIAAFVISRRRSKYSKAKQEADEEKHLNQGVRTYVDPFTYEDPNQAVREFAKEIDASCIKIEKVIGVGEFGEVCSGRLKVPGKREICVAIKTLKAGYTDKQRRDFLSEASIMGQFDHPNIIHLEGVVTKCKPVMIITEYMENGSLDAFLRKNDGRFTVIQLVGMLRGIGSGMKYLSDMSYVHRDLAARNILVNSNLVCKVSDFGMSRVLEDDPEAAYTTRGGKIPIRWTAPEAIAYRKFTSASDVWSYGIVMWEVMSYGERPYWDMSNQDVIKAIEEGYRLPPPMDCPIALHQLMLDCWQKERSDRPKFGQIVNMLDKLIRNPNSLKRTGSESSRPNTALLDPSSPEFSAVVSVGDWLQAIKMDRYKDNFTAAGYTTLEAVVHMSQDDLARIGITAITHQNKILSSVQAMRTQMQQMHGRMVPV

## COc1cccc([C@@H]2Oc3ccc(OC)cc3C(=O)[C@H]2OC(=O)NCc2ccc3c(c2)OCO3)c1
[1]
  EC50: 16.3 µM (active)
[2]
  EC50: 16.6 µM (active)
H4
  EC50: 46.4 µM (active)
[3]
  EC50: 4.06 µM (active)

## COc1ccc(N2CCN(C(CNC(=O)Oc3ccccc3)c3cccnc3)CC2)cc1 (stereo not drawn)
[4]
  EC50: < 0.1 µM (active)
[5]
  EC50: > 30 µM (not active)
cells
  EC50: 0.087 µM (active)

## Cc1onc(-c2c(F)cccc2Cl)c1C(=O)OCC(=O)NCc1ccco1
Estrogen receptor
  IC50: 38.6 µM (not active)

## O=C(CCSc1ccc(Br)cc1)c1ccc(O)cc1
[3]
  EC50: 1.17 µM (active)
[6]
  AC50: 1.81 µM (active)

## CCCSC1=N/C(=C\C=C\c2ccco2)C(=O)S1
Estrogen receptor beta [7]
  IC50: 9.71 µM (active)
Estrogen receptor beta [8]
  IC50: > 50 µM (not active)
Ephrin type-A receptor 4
  IC50: 11.9 µM (active)
[9]
  IC50: 3.97 µM (active)
Protein Tat
  IC50: 3.05 µM (inconclusive)
[10]
  CC50: > 40 µM (active)

## c1coc(-c2nc3ccccc3nc2-c2ccco2)c1
[11]
  EC50: 21.6 µM (active)
[12]
  EC50: 12 µM (active)
Estrogen receptor beta [8]
  IC50: < 0.023 µM (not active)
[9]
  IC50: < 0.4 µM (active)
[13]
  IC50: 12.4 µM (active)
Coagulation factor XII
  IC50: > 50 µM (inactive)
Genome polyprotein
  IC50: > 100 µM (active)
